Laboratory results from patent publication US6344562B1, “Thiazole derivatives” (Hoffmann-La Roche Inc., priority 1998, dated 2002).

| Structure (SMILES) | melting point |
| --- | --- |
| CCOC(=O)CC(NC(=O)c1cc(NC(=O)c2sc(NC(=N)N)nc2C)cc(OCc2ccccc2)c1)c1ccccc1 (racemic) [Example 74, ethyl (RS)-3-{3-benzyloxy-5-[(2-guanidino-4-methyl-thiazole-5-carbonyl)-amino]-benzoylamino}-3-phenyl-propionate] | 116 °C |
| CCOC(=O)CC(NC(=O)c1ccc(OC)c(NC(=O)c2sc(NC(=N)N)nc2C)c1)c1ccccc1 (racemic) [Example 78, ethyl (RS)-3-{3-[(2-guanidino-4-methyl-thiazole-5-carbonyl)-amino]-4-methoxy-benzoylamino}-3-phenyl-propionate] | 123 to 126 °C |
| N=C(N)Nc1nc(C(=O)NCC(=O)NC(CC(=O)O)c2cccnc2)cs1 (racemic) [Example 81, (RS)-3-{2-[(2-guanidino-thiazole-4-carbonyl)-amino]-acetylamino}-3-pyridin-3-yl-propionic acid] | 186 °C |
| CCOC(=O)CC(CCCCNC(=O)c1sc(NC(=N)N)nc1C)c1ccccc1 (racemic) [Example 84, ethyl (RS)-7-[(2-guanidino-4-methyl-thiazole-5-carbonyl)-amino]-3-phenyl-heptanoate] | 138 °C |
| Cc1nc(NC(=N)N)sc1C(=O)NCCCCC(CC(=O)O)c1ccccc1 (racemic) [Example 85, (RS)-7-[(2-guanidino-4-methyl-thiazole-5-carbonyl)-amino]-3-phenyl-heptanoic acid] | 125 °C |
| CCOC(=O)CCNC(=O)CCNC(=O)c1csc(NC(=N)N)n1 [Example 7, ethyl 3-[3-[(2-guanidino-thiazole-4-carbonyl)-amino]-propionylamino]-propionate] | 154 to 157 °C |
| CCOC(=O)CCCC(=O)CNC(=O)c1csc(NC(=O)NCc2ccccc2)n1 [Example 82, ethyl 6-{[2-(3-benzyl-ureido)-thiazole-4-carbonyl]-amino}-5-oxo-hexanoate] | 135 to 136 °C |
| O=C(O)CCCC(=O)CNC(=O)c1csc(NC(=O)NCc2ccccc2)n1 [Example 83, 6-{[2-(3-benzyl-ureido)-thiazole-4-carbonyl]-amino}-5-oxo-hexanoic acid] | 169 °C |

The remaining lines, values ahead:

| melting point | Structure (SMILES) |
| --- | --- |
| 245 to 247 °C (dec.) | CCCc1nc(NC(=N)N)sc1-c1cccc(NC(=O)CC(CC(=O)O)c2ccccc2)c1 (racemic) [Example 92, rac-4-[3-(2-guanidino-4-propyl-thiazol-5-yl)-phenylcarbamoyl]-3-phenyl-butyric acid] |
| 186 to 188 °C (dec.) | CCCCCc1nc(NC(=N)N)sc1-c1cccc(NC(=O)CC(CC(=O)O)c2ccccc2)c1 (racemic) [Example 94, rac-4-[3-(2-guanidino-4-pentyl-thiazol-5-yl)-phenylcarbamoyl]-3-phenyl-butyric acid] |
| 128 °C | CCOC(=O)CC(CCCNC(=O)c1csc(NC(=O)NCc2ccccc2)n1)C(=O)NCc1ccccc1 (racemic) [Example 147, ethyl rac-3-benzylcarbamoyl-6-{[2-(3-benzyl-ureido)-thiazole-4-carbonyl]-amino}-hexanoate] |
| 198 to 199 °C | CCOC(=O)CC(NC(=O)CNC(=O)c1csc(N=C2NCCN2)n1)c1cccnc1 (racemic) [Example 171, ethyl (RS)-3-(2-{[2-(imidazolidin-2-ylidenamino)-thiazole-4-carbonyl]-amino}-acetylamino)-3-pyridin-3-yl-propionate] |
| 137 to 139 °C | CCOC(=O)CC(CCCCNC(=O)c1sc(N=C2NCCCN2)nc1C)c1ccccc1 (racemic) [Example 173, ethyl rac-7-[[4-methyl-2-(tetrahydro-pyrimidin-2-ylideneamino)-thiazole-5-carbonyl]-amino]-3-phenyl-heptanoate] |
| 123 °C | CC(C)(C)OC(=O)C[C@H](NC(=O)CNC(=O)c1csc(NC(=O)NCc2ccccc2)n1)C(=O)NCc1ccccc1 [Example 129, tert-butyl (S)-N-benzyl-3-[2-[[2-(3-benzyl-ureido)-thiazole-4-carbonyl]-amino]-acetylamino]-succinamate] |
